Test [1] has as its target T1, pSTAT6 (pY641-STAT6) (Homo sapiens, UniProt P42226).
T1 construct: host or cells: cryopreserved PBMC
T1 sequence (P42226 1-847): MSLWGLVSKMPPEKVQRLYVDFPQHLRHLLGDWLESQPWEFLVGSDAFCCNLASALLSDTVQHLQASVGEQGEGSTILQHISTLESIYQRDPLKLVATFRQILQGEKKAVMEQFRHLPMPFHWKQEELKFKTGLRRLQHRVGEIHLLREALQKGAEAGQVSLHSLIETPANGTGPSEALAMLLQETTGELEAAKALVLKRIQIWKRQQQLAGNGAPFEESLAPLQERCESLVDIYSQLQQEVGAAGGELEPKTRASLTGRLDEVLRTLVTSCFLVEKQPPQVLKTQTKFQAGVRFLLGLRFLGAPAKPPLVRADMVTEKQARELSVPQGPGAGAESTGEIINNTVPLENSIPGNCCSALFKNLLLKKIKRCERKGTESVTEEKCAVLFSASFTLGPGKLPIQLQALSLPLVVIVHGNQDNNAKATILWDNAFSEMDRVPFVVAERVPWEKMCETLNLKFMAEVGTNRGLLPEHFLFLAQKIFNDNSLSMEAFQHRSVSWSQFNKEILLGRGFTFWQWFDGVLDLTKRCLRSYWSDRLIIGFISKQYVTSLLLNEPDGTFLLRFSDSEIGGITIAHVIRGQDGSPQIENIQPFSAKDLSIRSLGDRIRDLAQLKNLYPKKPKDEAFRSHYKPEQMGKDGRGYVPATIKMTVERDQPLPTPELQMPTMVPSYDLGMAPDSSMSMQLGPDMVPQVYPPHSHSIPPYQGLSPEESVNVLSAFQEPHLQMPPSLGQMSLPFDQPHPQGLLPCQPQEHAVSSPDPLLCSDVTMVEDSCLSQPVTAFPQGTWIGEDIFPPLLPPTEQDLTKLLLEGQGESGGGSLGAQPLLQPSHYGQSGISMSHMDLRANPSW
Nature of the test: MSD-pSTAT-PBMC Assay (pSTAT6, IL-4 stimulated). In kind it is cell-based. The note with it: compound 3 hrs, then 1 ng/mL IL-4 for 10 min. The source says:
Cryopreserved Peripheral Blood Mononuclear Cells (PBMC) are from AllCells. Recombinant Human IL-4 and IL-6 are from Peprotech. Mouse monoclonal anti-STAT3 antibody, rabbit monoclonal anti-pY705-STAT3 antibody, rabbit monoclonal Anti-pY641-STAT6 antibody, and lysis buffer are from Cell Signaling Technology (CST). Mouse monoclonal anti-STAT6 antibody is from BioLegend. Assay plates, blocker, and anti-rabbit secondary antibody are from Meso Scale Discovery (MSD).
Cryopreserved PBMCs were thawed out and allowed to recover overnight in IMDM+10% heat-inactivated FBS prior to plating 50,000 (STAT3) or 25,000 (STAT6) cells per well in 96-well U-bottom tissue culture plates. Cells were treated with compound for 3 hrs, then stimulated with 10 ng/mL IL-6 (STAT3) or 1 ng/mL IL-4 (STAT6) for 10 min. Cells were then spun down and washed with ice-cold PBS prior to lysing the cell pellet with 1× lysis buffer (CST) with 1× HALT protease and phosphatase inhibitor cocktail (Thermo). Lysates were transferred to and incubated overnight at 4° C. with shaking in QuickPlex 96-well high bind assay plates (MSD) pre-coated overnight with 30 μL per well of 0.6 μg/mL mouse monoclonal anti-STAT3 antibody (STAT3) or 2 μg/mL mouse monoclonal anti-STAT6 antibody (STAT6) in 1×PBS, and pre-blocked for 1 hour with 3% Blocker-A (MSD). Captured protein in the assay plates were then washed and probed with 25 μL per well of 0.25 μg/ml rabbit monoclonal anti-pY705-STAT3 antibody (STAT3) or 0.18 μg/ml rabbit monoclonal Anti-pY641-STAT6 antibody (STAT6) in 1% Blocker-A for 1 hour at room temperature with shaking, then washed and probed with 25 ul per well of 1 ug/mi Sulfo-TAG Labeled Goat Anti-Rabbit Antibody (MSD) in 1% Blocker-A for 1 hour at room temperature with shaking. Assay plates were then washed and 150 μL of 1× Read Buffer-T (MSD) was added to each well prior to reading on an SQ120 MSD Plate Reader. Assay signal from each sample was subtracted by the signal from unstimulated control wells and normalized to DMSO control wells. IC50 values were calculated using Graph Pad Prism Dose-Response Nonlinear Regression with variable slope. For both pSTAT3 and pSTAT6 A=≤100 nM; B=>100-1000 nM; C=>1000-3000 nM; and D=>3 μM.

In test [2] the target is T2, pSTAT3 (pY705-STAT3) (Homo sapiens, UniProt P40763).
T2 construct: host or cells: cryopreserved PBMC
Nature of the test: MSD-pSTAT-PBMC Assay (pSTAT3, IL-6 stimulated). Type of test: cell-based. The note with it: PBMC, compound 3 hrs, then 10 ng/mL IL-6 for 10 min; MSD pY705-STAT3; read-out: pSTAT3. In a few lines:
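Phospho-STAT levels captured on anti-STAT3 or anti-STAT6 plates and detected with anti-pY705 or anti-pY641 antibodies (MSD read-out). Cryopreserved human PBMCs received compound for 3 h before a 10 min pulse of IL-6 (10 ng/mL, STAT3) or IL-4 (1 ng/mL, STAT6). IC50 fitted after unstimulated-background subtraction and DMSO normalization.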

Some results are limits rather than exact numbers.

T2 sequence (P40763 whole entry): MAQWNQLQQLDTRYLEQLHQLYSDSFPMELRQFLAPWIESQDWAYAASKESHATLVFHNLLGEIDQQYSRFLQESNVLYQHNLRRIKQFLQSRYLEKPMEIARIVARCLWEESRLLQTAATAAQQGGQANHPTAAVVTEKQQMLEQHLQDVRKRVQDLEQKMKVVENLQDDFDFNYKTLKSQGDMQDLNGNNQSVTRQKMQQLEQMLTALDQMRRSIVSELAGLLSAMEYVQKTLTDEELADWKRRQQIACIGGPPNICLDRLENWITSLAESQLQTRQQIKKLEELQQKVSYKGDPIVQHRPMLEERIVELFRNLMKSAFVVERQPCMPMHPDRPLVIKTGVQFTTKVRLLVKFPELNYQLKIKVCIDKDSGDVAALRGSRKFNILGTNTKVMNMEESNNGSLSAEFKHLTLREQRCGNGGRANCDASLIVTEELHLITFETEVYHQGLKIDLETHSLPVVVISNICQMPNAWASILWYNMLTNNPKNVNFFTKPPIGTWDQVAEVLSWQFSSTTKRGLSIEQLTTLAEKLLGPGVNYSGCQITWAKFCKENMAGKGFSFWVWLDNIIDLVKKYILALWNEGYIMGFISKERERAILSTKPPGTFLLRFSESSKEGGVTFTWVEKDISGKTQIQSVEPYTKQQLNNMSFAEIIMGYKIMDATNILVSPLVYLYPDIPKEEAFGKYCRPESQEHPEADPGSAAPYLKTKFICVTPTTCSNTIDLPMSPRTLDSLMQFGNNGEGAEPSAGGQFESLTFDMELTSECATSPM

In the case of `CC(C)(C)C(=O)OCOP(=O)(OCOC(=O)C(C)(C)C)C(F)(F)c1ccc2sc(C(=O)N[C@H]3C[C@@H]4C[C@@H]4C[C@H]4CC[C@@H](C(=O)N5C[C@@H](C#N)[C@H](c6ccccc6)C5)N4C3=O)cc2c1` (relative stereo) [Compound 139, ((((2-(((3S,6S,7aR, 8aS,9aR)-3-((rel-trans)-3-cyano-4-phenyl-pyrrolidine-1-carbonyl)-5-oxodecahydro-1H-cyclopropa [d]pyrrolo[1,2-a]azocin-6-yl)carbamoyl)benzo[b]thiophen-5-yl)difluoro-methyl)phosphoryl)bis(oxy)) bis(methylene) bis(2,2-dimethylpro-panoate)], the IC50 in test [1] and in test [2] was below 100 nM throughout.

As for `CC(C)(C)C(=O)OCOP(=O)(OCOC(=O)C(C)(C)C)[C@@H](F)c1ccc2sc(C(=O)N[C@H]3C[C@@H]4C[C@@H]4C[C@H]4CC[C@@H](C(=O)N5CC(C(=O)N6CCOCC6)C5)N4C3=O)cc2c1` (single isomer, unassigned) [Compound 182, ((((S) or (R)-fluoro(2-(((3S,6S,7aS, 8aR,9aR)-3-(3-(morpholine-4-carbonyl)azetidine-1-carbonyl)-5-oxodecahydro-1H-cyclopropa[d]pyrrolo[1,2-a]azocin-6-yl)carbamoyl)benzo[b]thiophen-5-yl)methyl)phosphoryl)bis(oxy)) bis(methylene) bis(2,2-dimethyl-propanoate)], the IC50 in test [1] is above 3000 nM; in test [2], below 100 nM.

`CC(C)(C)C(=O)OCOP(=O)(OCOC(=O)C(C)(C)C)[C@@H](F)c1ccc2sc(C(=O)N[C@H]3C[C@@H]4C[C@@H]4C[C@H]4CC[C@@H](C(=O)N5CC(C(=O)N6CCOCC6)C5)N4C3=O)cc2c1` (single isomer, unassigned) [Compound 183, ((((R) or (S)-fluoro(2-(((3S,6S,7aS, 8aR,9aR)-3-(3-(morpholine-4-carbonyl)azetidine-1-carbonyl)-5-oxodecahydro-1H-cyclopropa[d]pyrrolo[1,2-a]azocin-6-yl)carbamoyl)benzo[b]thiophen-5-yl)methyl)phosphoryl)bis(oxy)) bis(methylene) bis(2,2-dimethyl-propanoate)]: the figures for the IC50 in test [1] and in test [2] were 100 to 1000 nM and below 100 nM, respectively.

Regarding `CC(C)(CO)C(=O)SCCOP(=O)(OCCSC(=O)C(C)(C)CO)C(F)(F)c1ccc2sc(C(=O)N[C@H]3C[C@@H]4C[C@@H]4C[C@H]4CC[C@@H](C(=O)N5CC(C(=O)N6CCOCC6)C5)N4C3=O)cc2c1` [Compound 131, S,S′-((((difluoro(2-(((3S,6S,7aS, 8aR,9aR)-3-(3-(morpholine-4-carbonyl)azetidine-1-carbonyl)-5-oxodecahydro-1H-cyclopropa[d]pyrrolo[1,2-a]azocin-6-yl)carbamoyl)benzo[b]thiophen-5-yl)methyl)phosphoryl)bis(oxy))bis(ethane-2,1-diyl)) bis(3-hydroxy-2,2-dimethyl-propane-thioate)], the IC50 was above 3000 nM in test [1] and 100 to 1000 nM in test [2].

With `CC(C)(CO)C(=O)SCCOP(=O)(Cc1ccc2sc(C(=O)N[C@H]3C[C@@H]4C[C@@H]4C[C@H]4CC[C@@H](C(=O)N5CC(C(=O)N6CCOCC6)C5)N4C3=O)cc2c1)OCCSC(=O)C(C)(C)CO` [Compound 133, S,S′-(((((2-(((3S,6S,7aS, 8aR,9aR)-3-(3-(morpholine-4-carbonyl)azetidine-1-carbonyl)-5-oxodecahydro-1H-cyclopropa[d]pyrrolo[1,2-a]azocin-6-yl)carbamoyl)benzo[b]thiophen-5-yl)methyl)phosphoryl)bis(oxy))bis(ethane-2,1-diyl)) bis(3-hydroxy-2,2-dimethyl-propane-thioate], the IC50 in test [1] and in test [2] was above 3000 nM each time.

Regarding `O=C(OCOP(=O)(Cc1ccc2sc(C(=O)N[C@H]3C[C@H]4C[C@H]4C[C@H]4CC[C@@H](C(=O)N5CC(c6cccnc6)C5)N4C3=O)cc2c1)OCOC(=O)OC1CCOCC1)OC1CCOCC1` [Compound 135, ((((2-(((3S,6S,7aR, 8aS,9aR)-5-oxo-3-(3-(pyridin-3-yl)azetidine-1-carbonyl)decahydro-1H-cyclopropa[d]pyrrolo[1,2-a]azocin-6-yl)carbamoyl)benzo[b]thiophen-5-yl)methyl)phosphoryl)bis(oxy)) bis(methylene) bis(tetrahydro-2H-pyran-4-yl) bis(carbonate)], the values for the IC50 in test [1] and in test [2] were above 3000 nM and below 100 nM, respectively.

`CC(C)(O)CC(=O)SCCOP(=O)(OCCSC(=O)CC(C)(C)O)C(F)(F)c1ccc2sc(C(=O)NC3CC4CC4CC4CCC(C(=O)N5CC(n6ccnc6)C5)N4C3=O)cc2c1` [Compound 136, S,S′-(((((2-(((3S,6S,7aS, 8aR,9aR)-3-(3-(1H-imidazol-1-yl)azetidine-1-carbonyl)-5-oxodecahydro-1H-cyclopropa[d]pyrrolo[1,2-a]azocin-6-yl)carbamoyl)benzo[b]thiophen-5-yl)difluoro-methyl)phosphoryl)bis(oxy))bis (ethane-2,1-diyl))bis(3-hydroxy-3-methylbutane thioate)]: the IC50 in test [1] was above 3000 nM; in test [2] it was 1000 to 3000 nM.

On to `CC(C)(CO)C(=O)SCCOP(=O)(OCCSC(=O)C(C)(C)CO)C(F)(F)c1ccc2sc(C(=O)N[C@H]3C[C@@H]4C[C@@H]4C[C@H]4CC[C@@H](C(=O)N5CC(n6ccnc6)C5)N4C3=O)cc2c1` [Compound 137, S,S′-(((((2-(((3S,6S,7aS, 8aR,9aR)-3-(3-(1H-imidazol-1-yl)azetidine-1-carbonyl)-5-oxodecahydro-1H-cyclopropa[d]pyrrolo[1,2-a]azocin-6-yl)carbamoyl)benzo[b]thiophen-5-yl)difluoro-methyl)phosphoryl)bis (oxy))bis(ethane-2,1-diyl))bis(3-hydroxy-2,2-dimethylpro-panethioate)], for which the IC50 in test [1] was above 3000 nM; in test [2] it was 1000 to 3000 nM.

As to `CCCC(=O)SCCOP(=O)(OCCSC(=O)C(C)(C)C)C(F)(F)c1ccc2sc(C(=O)N[C@H]3C[C@@H]4C[C@@H]4C[C@H]4CC[C@@H](C(=O)N5CC(C(=O)N6CCOCC6)C5)N4C3=O)cc2c1` (stereo partly drawn) [Compound 138, S-(2-(((difluoro(2-(((3S,6S,7aS, 8aR,9aR)-3-(3-(morpholine-4-carbonyl)azetidine-1-carbonyl)-5-oxodecahydro-1H-cyclopropa [d]pyrrolo[1,2-a]azocin-6-yl)carbamoyl)benzo [b]thiophen-5-yl)methyl)(2-(pivaloylthio)ethoxy)phosphoryl)oxy)ethyl) butanethioate], the results for the IC50 in test [1] and in test [2] were 1000 to 3000 nM and below 100 nM, respectively.

(Values after patent US20250215030A1, “STAT MODULATORS AND USES THEREOF” (Recludix Pharma, Inc., priority 2022, published 2025).)
